Where only a bound is given, the exact number is not on record here.

One may read the IC50 as the midpoint of a concentration-inhibition curve.

The target in this assay is T1, RIPK2 enzyme (Homo sapiens, UniProt O43353).
T1 construct: purchased Carna 09-128
T1 sequence (O43353 1-299 limits assumed): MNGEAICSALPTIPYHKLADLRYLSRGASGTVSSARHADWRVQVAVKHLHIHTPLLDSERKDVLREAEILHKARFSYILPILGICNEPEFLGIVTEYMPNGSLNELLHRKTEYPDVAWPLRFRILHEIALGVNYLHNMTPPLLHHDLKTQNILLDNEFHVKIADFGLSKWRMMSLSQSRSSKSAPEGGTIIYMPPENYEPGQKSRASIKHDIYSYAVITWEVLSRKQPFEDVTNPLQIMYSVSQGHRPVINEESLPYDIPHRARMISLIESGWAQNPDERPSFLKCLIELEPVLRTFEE
The assay can be described thus: RIPK2 inhibition (ADP-Glo Kinase Assay). The assay is classed as biochemical. To be noted: RIPK2 5 nM, ATP 150 μM, MBP substrate, read-out: RIPK2 IC50. Put shortly:
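Human RIPK2 (5 nM) preincubated with compound 30 min at room temperature in 50 mM HEPES pH 7.5, 10 mM MgCl2, 2 mM DTT, 1 mM EGTA, 0.01% Brij-35, 0.05% BSA; native swine MBP as substrate. ADP formed quantified by ADP-Glo luminescence; percent inhibition relative to DMSO and no-enzyme controls.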
A general note: ADP-Glo turns the ADP formed in a reaction into a luminescent signal.
For the compound `CC(=O)N1CCC(Oc2ccc3nccc(Oc4ccc(CC(=O)Nc5cnn(C(C)(C)C)c5)c(F)c4)c3c2)CC1` [Compound 151, 2-(4-((6-((1-acetyl-piperidin-4-yl)oxy)quinolin-4-yl)oxy)-2-fluoro-phenyl)-N-(1-(tert-butyl)-1H-pyrazol-4-yl)acetamide], the IC50 is < 2.5 nM. The figure for `CC(C)(C)n1cc(NC(=O)Cc2ccc(Oc3ccnc4ccc(N5CCCC5=O)cc34)cc2F)cn1` [Compound 152, N-(1-(tert-butyl)-1H-pyrazol-4-yl)-2-(2-fluoro-4-((6-(2-oxopyrrolidin-1-yl)quinolin-4-yl)oxy)phenyl) acetamide] is < 2.5 nM; for `CC(C)(C)n1cc(NC(=O)Cc2ccc(Oc3ccnc4ccc(N5CCCCC5=O)cc34)cc2F)cn1` [Compound 153, N-(1-(tert-butyl)-1H-pyrazol-4-yl)-2-(2-fluoro-4-((6-(2-oxopiperidin-1-yl)quinolin-4-yl)oxy)phenyl) acetamide] it is 2.7 nM; for `CC(C)(C)n1cc(NC(=O)Cc2ccc(Oc3ccnc4ccc(N5CCOCC5=O)cc34)cc2F)cn1` [Compound 154, N-(1-(tert-butyl)-1H-pyrazol-4-yl)-2-(2-fluoro-4-((6-(3-oxomorpholino)quinolin-4-yl)oxy)phenyl) acetamide] it is < 2.5 nM. For `CC(C)(C)n1cc(NC(=O)Cc2ccc(Oc3ccnc4ccc(N5CCNCC5=O)cc34)cc2F)cn1` [Compound 155, N-(1-(tert-butyl)-1H-pyrazol-4-yl)-2-(2-fluoro-4-((6-(2-oxopiperazin-1-yl)quinolin-4-yl)oxy)phenyl) acetamide] the value was 2.5 nM; for `CN1CCN(c2ccc3nccc(Oc4ccc(CC(=O)Nc5cnn(C(C)(C)C)c5)c(F)c4)c3c2)C(=O)C1` [Compound 156, N-(1-(tert-butyl)-1H-pyrazol-4-yl)-2-(2-fluoro-4-((6-(4-methyl-2-oxopiperazin-1-yl)quinolin-4-yl)oxy)phenyl) acetamide], 4.5 nM. For `CC(C)(C)n1cc(NC(=O)Cc2ccc(Oc3ccnc4ccc(-n5ccccc5=O)cc34)cc2F)cn1` [Compound 157, N-(1-(tert-butyl)-1H-pyrazol-4-yl)-2-(2-fluoro-4-((6-(2-oxopyridin-1(2H)-yl)quinolin-4-yl)oxy)phenyl) acetamide] the value was 5.2 nM. `CC(C)(C)n1cc(NC(=O)Cc2ccc(Oc3ncnc4ccc(OC5CCNCC5)cc34)c(Cl)c2)cn1` [Compound 158, N-(1-(tert-butyl)-1H-pyrazol-4-yl)-2-(3-chloro-4-((6-(piperidin-4-yloxy)quinazolin-4-yl)oxy)phenyl) acetamide]: the IC50 is < 2.5 nM.

Regarding `CN1CCC(Oc2ccc3ncnc(Oc4ccc(CC(=O)Nc5cnn(C(C)(C)C)c5)cc4Cl)c3c2)CC1` [Compound 159, N-(1-(tert-butyl)-1H-pyrazol-4-yl)-2-(3-chloro-4-((6-((1-methyl-piperidin-4-yl)oxy)quinazolin-4-yl)oxy)phenyl) acetamide], the IC50 is < 2.5 nM. The figure for `CCN1CCC(Oc2ccc3ncnc(Oc4ccc(CC(=O)Nc5cnn(C(C)(C)C)c5)cc4Cl)c3c2)CC1` [Compound 160, N-(1-(tert-butyl)-1H-pyrazol-4-yl)-2-(3-chloro-4-((6-((1-ethyl-piperidin-4-yl)oxy)quinazolin-4-yl)oxy)phenyl) acetamide] is < 2.5 nM. For `CC(C)(C)n1cc(NC(=O)Cc2ccc(Oc3ccnc4ccc(OC5CCNCC5)cc34)c(F)c2)cn1` [Compound 161, N-(1-(tert-butyl)-1H-pyrazol-4-yl)-2-(3-fluoro-4-((6-(piperidin-4-yloxy)quinolin-4-yl)oxy)phenyl) acetamide] the value was < 2.5 nM; for `CN1CCC(Oc2ccc3nccc(Oc4ccc(CC(=O)Nc5cnn(C(C)(C)C)c5)cc4F)c3c2)CC1` [Compound 162, N-(1-(tert-butyl)-1H-pyrazol-4-yl)-2-(3-fluoro-4-((6-((1-methyl-piperidin-4-yl)oxy)quinolin-4-yl)oxy)phenyl) acetamide], < 2.5 nM. For `CC(C)(C)n1cc(NC(=O)Cc2ccc(Oc3ccnc4ccc(S(C)(=O)=O)cc34)c(F)c2)cn1` [Compound 163, N-(1-(tert-butyl)-1H-pyrazol-4-yl)-2-(3-fluoro-4-((6-(methylsulfonyl)quinolin-4-yl)oxy)phenyl)acetamide] the value was < 2.5 nM; for `CCS(=O)(=O)c1ccc2nccc(Oc3ccc(CC(=O)Nc4cnn(C(C)(C)C)c4)cc3F)c2c1` [Compound 164, N-(1-(tert-butyl)-1H-pyrazol-4-yl)-2-(4-((6-(ethylsulfonyl)quinolin-4-yl)oxy)-3-fluorophenyl)acetamide], < 2.5 nM. Regarding `CC(C)(C)n1cc(NC(=O)Cc2ccc(Oc3ccnc4ccc(OC5CCNCC5)cc34)c(F)c2F)cn1` [Compound 165, N-(1-(tert-butyl)-1H-pyrazol-4-yl)-2-(2,3-difluoro-4-((6-(piperidin-4-yloxy)quinolin-4-yl)oxy)phenyl) acetamide], the IC50 was < 2.5 nM.

As for `CN1CCC(Oc2ccc3nccc(Oc4ccc(CC(=O)Nc5cnn(C(C)(C)C)c5)c(F)c4F)c3c2)CC1` [Compound 166, N-(1-(tert-butyl)-1H-pyrazol-4-yl)-2-(2,3-difluoro-4-((6-((1-methyl-piperidin-4-yl)oxy)quinolin-4-yl)oxy)phenyl) acetamide], the 50% inhibitory concentration (IC50) is < 2.5 nM.

For `CC(C)(C)n1cc(NC(=O)Cc2ccc(Oc3ccnc4ccc(S(C)(=O)=O)cc34)c(F)c2F)cn1` [Compound 167, N-(1-(tert-butyl)-1H-pyrazol-4-yl)-2-(2,3-difluoro-4-((6-(methylsulfonyl)quinolin-4-yl)oxy)phenyl)acetamide], the IC50 was < 2.5 nM.

Turning to `CCS(=O)(=O)c1ccc2nccc(Oc3ccc(CC(=O)Nc4cnn(C(C)(C)C)c4)c(F)c3F)c2c1` [Compound 168, N-(1-(tert-butyl)-1H-pyrazol-4-yl)-2-(4-((6-(ethylsulfonyl)quinolin-4-yl)oxy)-2,3-difluorophenyl)acetamide], the IC50 is < 2.5 nM. Regarding `CC(C)(C)n1cc(NC(=O)Cc2ccc(Oc3ncnc4ccc(OC5CCNCC5)cc34)c(F)c2F)cn1` [Compound 169, N-(1-(tert-butyl)-1H-pyrazol-4-yl)-2-(2,3-difluoro-4-((6-(piperidin-4-yloxy)quinazolin-4-yl)oxy)phenyl) acetamide], the IC50 is < 2.5 nM. The figure for `CN1CCC(Oc2ccc3ncnc(Oc4ccc(CC(=O)Nc5cnn(C(C)(C)C)c5)c(F)c4F)c3c2)CC1` [Compound 170, N-(1-(tert-butyl)-1H-pyrazol-4-yl)-2-(2,3-difluoro-4-((6-((1-methyl-piperidin-4-yl)oxy)quinazolin-4-yl)oxy)phenyl) acetamide] is < 2.5 nM; for `CC(C)(C)n1cc(NC(=O)Cc2ccc(Oc3ccnc4ccc(OC5CCNCC5)cc34)c(Cl)c2)cn1` [Compound 171, N-(1-(tert-butyl)-1H-pyrazol-4-yl)-2-(3-chloro-4-((6-(piperidin-4-yloxy)quinolin-4-yl)oxy)phenyl) acetamide] it is < 2.5 nM. The figure for `CN1CCC(Oc2ccc3nccc(Oc4ccc(CC(=O)Nc5cnn(C(C)(C)C)c5)cc4Cl)c3c2)CC1` [Compound 172, N-(1-(tert-butyl)-1H-pyrazol-4-yl)-2-(3-chloro-4-((6-((1-methyl-piperidin-4-yl)oxy)quinolin-4-yl)oxy)phenyl) acetamide] is < 2.5 nM; for `CCS(=O)(=O)c1ccc2nccc(Oc3ccc(CC(=O)Nc4cnn(C(C)(C)C)c4)c(F)c3C)c2c1` [Compound 173, N-(1-(tert-butyl)-1H-pyrazol-4-yl)-2-(4-((6-(ethylsulfonyl)quinolin-4-yl)oxy)-2-fluoro-3-methylphenyl)acetamide] it is < 2.5 nM; for `Cc1c(Oc2ccnc3ccc(S(C)(=O)=O)cc23)ccc(CC(=O)Nc2cc(C(C)(C)C)n[nH]2)c1F` [Compound 175, N-(5-(tert-butyl)-1H-pyrazol-3-yl)-2-(2-fluoro-3-methyl-4-((6-(methylsulfonyl)quinolin-4-yl)oxy)phenyl)acetamide] it is < 2.5 nM. For `Cc1cc(CC(=O)Nc2cnn(C(C)(C)C)c2)ccc1Oc1ncnc2ccc(OC3CCN(CCO)CC3)cc12` [Compound 176] the value was 4 nM; for `COCCN1CCC(Oc2ccc3ncnc(Oc4ccc(CC(=O)Nc5cnn(C(C)(C)C)c5)cc4C)c3c2)CC1` [Compound 177, N-(1-(tert-butyl)-1H-pyrazol-4-yl)-2-(4-((6-((1-(2-methoxyethyl)piperidin-4-yl)oxy)quinazolin-4-yl)oxy)-3-methylphenyl) acetamide], < 2.5 nM; for `Cc1cc(CC(=O)Nc2cnn(C(C)(C)C)c2)ccc1Oc1ncnc2ccc(OC3CCN(CC(F)F)CC3)cc12` [Compound 178, N-(1-(tert-butyl)-1H-pyrazol-4-yl)-2-(4-((6-((1-(2,2-difluoroethyl)piperidin-4-yl)oxy)quinazolin-4-yl)oxy)-3-methylphenyl) acetamide], 5 nM.

Consider `CCP(=O)(CC)c1ccc2nccc(Oc3ccc(CC(=O)Nc4cnn(C(C)(C)C)c4)cc3C)c2c1` [Compound 180, N-(1-(tert-butyl)-1H-pyrazol-4-yl)-2-(4-((6-(diethylphosphoryl)quinolin-4-yl)oxy)-3-methylphenyl) acetamide], for which the IC50 is < 2.5 nM. For `Cc1cc(CC(=O)Nc2cnn(C(C)(C)C)c2)ccc1Oc1ccnc2ccc(P3(=O)CCCC3)cc12` [Compound 181, N-(1-(tert-butyl)-1H-pyrazol-4-yl)-2-(3-methyl-4-((6-(1-oxidophospholan-1-yl)quinolin-4-yl)oxy)phenyl) acetamide] the value was < 2.5 nM; for `Cc1cc(CC(=O)Nc2noc(C(C)(C)C)n2)ccc1Oc1ncnc2ccc(OC3CCNCC3)cc12` [Compound 183, N-(5-(tert-butyl)-1,2,4-oxadiazol-3-yl)-2-(3-methyl-4-((6-(piperidin-4-yloxy)quinazolin-4-yl)oxy)phenyl) acetamide], < 2.5 nM.
